{"source": "ChEMBL document CHEMBL5390293", "about": "“Additional Sarasinosides from the Marine Sponge Melophlus sarasinorum Collected from the Bismarck Sea” (J Nat Prod, 2023)", "key": {"Staphylococcus aureus": {"system": "Staphylococcus aureus", "assay": "Antimicrobial activity against methicillin sensitive Staphylococcus aureus assessed as bacterial growth inhibition", "assay_type": "functional, organism-based"}, "Pichia kudriavzevii": {"system": "Pichia kudriavzevii", "assay": "Antimicrobial activity against Pichia kudriavzevii assessed as fungal growth inhibition", "assay_type": "functional, organism-based"}, "HepG2 [1]": {"system": "HepG2", "assay": "Cytotoxicity against human HepG2 cells assessed as cell viability at 20 ug/ml by MTT assay", "assay_type": "functional, cell-based", "conditions": "dose 20.0 µg/ml"}, "A549": {"system": "A549", "assay": "Cytotoxicity against human A549 cells assessed as cell viability at 20 ug/ml by MTT assay", "assay_type": "functional, cell-based", "conditions": "dose 20.0 µg/ml"}, "Acinetobacter baumannii": {"system": "Acinetobacter baumannii", "assay": "Antimicrobial activity against Acinetobacter baumannii assessed as bacterial growth inhibition", "assay_type": "functional, organism-based"}, "Aspergillus fumigatus": {"system": "Aspergillus fumigatus", "assay": "Antimicrobial activity against Aspergillus fumigatus assessed as fungal growth inhibition", "assay_type": "functional, organism-based"}, "Candida tropicalis": {"system": "Candida tropicalis", "assay": "Antimicrobial activity against Candida tropicalis assessed as fungal growth inhibition", "assay_type": "functional, organism-based"}, "MCF7": {"system": "MCF7", "assay": "Cytotoxicity against human MCF7 cells assessed as cell viability at 20 ug/ml by MTT assay", "assay_type": "functional, cell-based", "conditions": "dose 20.0 µg/ml"}, "A2058": {"system": "A2058", "assay": "Cytotoxicity against human A2058 cells assessed as cell viability at 20 ug/ml by MTT assay", "assay_type": "functional, cell-based", "conditions": "dose 20.0 µg/ml"}, "Escherichia coli": {"system": "Escherichia coli", "assay": "Antimicrobial activity against Escherichia coli assessed as bacterial growth inhibition", "assay_type": "functional, organism-based"}, "Candida parapsilosis": {"system": "Candida parapsilosis", "assay": "Antimicrobial activity against Candida parapsilosis assessed as fungal growth inhibition", "assay_type": "functional, organism-based"}, "Nakaseomyces glabratus": {"system": "Nakaseomyces glabratus", "assay": "Antimicrobial activity against Candida glabrata assessed as fungal growth inhibition", "assay_type": "functional, organism-based"}, "Candida albicans": {"system": "Candida albicans", "assay": "Antimicrobial activity against Candida albicans assessed as fungal growth inhibition", "assay_type": "functional, organism-based"}, "MIA PaCa-2": {"system": "MIA PaCa-2", "assay": "Cytotoxicity against human MIA PaCa-2 cells assessed as cell viability at 20 ug/ml by MTT assay", "assay_type": "functional, cell-based", "conditions": "dose 20.0 µg/ml"}, "HepG2 [2]": {"system": "HepG2", "assay": "Cytotoxicity against human HepG2 cells incubated for 48 hrs by absorbance based assay", "assay_type": "functional, cell-based", "conditions": "HepG2, 48 h"}, "N2a": {"system": "N2a", "assay": "Cytotoxicity against mouse Neuro2a cells incubated for 24 hrs by absorbance based assay", "assay_type": "functional, cell-based"}}, "note": "Active and inactive are the calls of the source. The rule behind the calls is not given here."}
{"smiles": "CO[C@@H]1C[C@H]([C@H](C)CC(=O)C=C(C)C)[C@@]2(C)CC[C@@]3(O)C(=C12)CC[C@H]1C(C)(C)[C@@H](O[C@@H]2OC[C@@H](O[C@@H]4O[C@H](CO)[C@H](O)[C@H](O)[C@H]4NC(C)=O)[C@H](O)[C@H]2O[C@@H]2O[C@H](CO[C@@H]4OC[C@@H](O)[C@H](O)[C@H]4O)[C@@H](O)[C@H](O)[C@H]2NC(C)=O)CC[C@@]13C", "values": [{"measurement": "inhibition", "setting": "Staphylococcus aureus", "result": "inactive"}, {"measurement": "inhibition", "setting": "Pichia kudriavzevii", "result": "inactive"}, {"measurement": "Activity", "setting": "HepG2 [1]", "result": "inactive"}, {"measurement": "Activity", "setting": "A549", "result": "inactive"}, {"measurement": "inhibition", "setting": "Acinetobacter baumannii", "result": "inactive"}, {"measurement": "inhibition", "setting": "Aspergillus fumigatus", "result": "inactive"}, {"measurement": "inhibition", "setting": "Candida tropicalis", "result": "inactive"}, {"measurement": "Activity", "setting": "MCF7", "result": "inactive"}, {"measurement": "Activity", "setting": "A2058", "result": "inactive"}, {"measurement": "inhibition", "setting": "Escherichia coli", "result": "inactive"}, {"measurement": "inhibition", "setting": "Candida parapsilosis", "result": "inactive"}, {"measurement": "inhibition", "setting": "Nakaseomyces glabratus", "result": "inactive"}, {"measurement": "inhibition", "setting": "Candida albicans", "result": "inactive"}, {"measurement": "inhibition", "setting": "MIA PaCa-2", "result": "inactive"}]}
{"smiles": "CC(=O)N[C@H]1[C@H](O[C@@H]2CO[C@@H](O[C@H]3CC[C@]4(C)C5=CC[C@@]6(C)C(=C(CC[C@H]4C3(C)C)O5)CC[C@@H]6[C@H](C)CC(=O)C=C(C)C)[C@H](O[C@@H]3O[C@H](CO[C@@H]4OC[C@@H](O)[C@H](O)[C@H]4O[C@@H]4O[C@H](CO)[C@@H](O)[C@H](O)[C@H]4O)[C@@H](O)[C@H](O)[C@H]3NC(C)=O)[C@H]2O)O[C@H](CO)[C@H](O)[C@@H]1O", "values": [{"measurement": "IC50", "setting": "HepG2 [2]", "result": 5.9, "unit": "µM"}]}
{"smiles": "CC(=O)N[C@H]1[C@H](O[C@@H]2CO[C@@H](O[C@H]3CC[C@]4(C)C5=C(CC[C@H]4C3(C)C)C3CC[C@H]([C@H](C)CC(=O)C=C(C)C)[C@@]3(C)CC5)[C@H](O[C@@H]3O[C@H](CO[C@@H]4OC[C@@H](O)[C@H](O)[C@H]4O[C@@H]4O[C@H](CO)[C@H](O)[C@@H](O)[C@H]4O)[C@@H](O)[C@H](O)[C@H]3NC(C)=O)[C@H]2O)O[C@H](CO)[C@H](O)[C@@H]1O", "note": "(some centres undefined)", "values": [{"measurement": "IC50", "setting": "N2a", "result": 5.8, "unit": "µM"}]}
{"smiles": "CC(=O)N[C@H]1[C@H](O[C@@H]2CO[C@@H](O[C@H]3CC[C@]4(C)C5=C(CC[C@H]4C3(C)C)[C@@H]3CC[C@H]([C@H](C)CC(=O)C=C(C)C)[C@@]3(C)CC5)[C@H](O[C@@H]3O[C@H](CO[C@@H]4OC[C@@H](O)[C@H](O)[C@H]4O)[C@@H](O)[C@H](O)[C@H]3NC(C)=O)[C@H]2O)O[C@H](CO)[C@H](O)[C@@H]1O", "values": [{"measurement": "inhibition", "setting": "Staphylococcus aureus", "result": "inactive"}, {"measurement": "inhibition", "setting": "Pichia kudriavzevii", "result": "inactive"}, {"measurement": "Activity", "setting": "HepG2 [1]", "result": "inactive"}, {"measurement": "Activity", "setting": "A549", "result": "inactive"}, {"measurement": "inhibition", "setting": "Acinetobacter baumannii", "result": "inactive"}, {"measurement": "inhibition", "setting": "Aspergillus fumigatus", "result": "inactive"}, {"measurement": "inhibition", "setting": "Candida tropicalis", "result": "inactive"}, {"measurement": "Activity", "setting": "MCF7", "result": "inactive"}, {"measurement": "Activity", "setting": "A2058", "result": "inactive"}, {"measurement": "inhibition", "setting": "Escherichia coli", "result": "inactive"}, {"measurement": "inhibition", "setting": "Candida parapsilosis", "result": "inactive"}, {"measurement": "inhibition", "setting": "Nakaseomyces glabratus", "result": "inactive"}, {"measurement": "inhibition", "setting": "Candida albicans", "result": "inactive"}, {"measurement": "inhibition", "setting": "MIA PaCa-2", "result": "inactive"}]}
{"smiles": "CO[C@H]1C[C@H]([C@H](C)CC(=O)C=C(C)C)[C@@]2(C)CC[C@@]3(O)C(=C12)CC[C@H]1C(C)(C)[C@@H](O[C@@H]2OC[C@@H](O[C@@H]4O[C@H](CO)[C@H](O)[C@H](O)[C@H]4NC(C)=O)[C@H](O)[C@H]2O[C@@H]2O[C@H](CO[C@@H]4OC[C@@H](O)[C@H](O)[C@H]4O)[C@@H](O)[C@H](O)[C@H]2NC(C)=O)CC[C@@]13C", "values": [{"measurement": "inhibition", "setting": "Staphylococcus aureus", "result": "inactive"}, {"measurement": "inhibition", "setting": "Pichia kudriavzevii", "result": "inactive"}, {"measurement": "Activity", "setting": "HepG2 [1]", "result": "inactive"}, {"measurement": "Activity", "setting": "A549", "result": "inactive"}, {"measurement": "inhibition", "setting": "Acinetobacter baumannii", "result": "inactive"}, {"measurement": "inhibition", "setting": "Aspergillus fumigatus", "result": "inactive"}, {"measurement": "inhibition", "setting": "Candida tropicalis", "result": "inactive"}, {"measurement": "Activity", "setting": "MCF7", "result": "inactive"}, {"measurement": "Activity", "setting": "A2058", "result": "inactive"}, {"measurement": "inhibition", "setting": "Escherichia coli", "result": "inactive"}, {"measurement": "inhibition", "setting": "Candida parapsilosis", "result": "inactive"}, {"measurement": "inhibition", "setting": "Nakaseomyces glabratus", "result": "inactive"}, {"measurement": "inhibition", "setting": "Candida albicans", "result": "inactive"}, {"measurement": "inhibition", "setting": "MIA PaCa-2", "result": "inactive"}]}
